Patent US20090175852A1, “IMIDAZOPYRAZINES AS PROTEIN KINASE INHIBITORS” (Schering Corporation, priority 2006, published 2009)

Tests used:
Mk2 = Mk2 (Homo sapiens, UniProt P49137); assay: Mk2 kinase inhibition (Table 4 activity data); format: biochemical
CHK-1 = biological target: T1, CHK-1 (Homo sapiens, UniProt O14757); assay: CHK-1 kinase inhibition (Table 4 activity data); format: biochemical
T1 sequence (O14757 1-476): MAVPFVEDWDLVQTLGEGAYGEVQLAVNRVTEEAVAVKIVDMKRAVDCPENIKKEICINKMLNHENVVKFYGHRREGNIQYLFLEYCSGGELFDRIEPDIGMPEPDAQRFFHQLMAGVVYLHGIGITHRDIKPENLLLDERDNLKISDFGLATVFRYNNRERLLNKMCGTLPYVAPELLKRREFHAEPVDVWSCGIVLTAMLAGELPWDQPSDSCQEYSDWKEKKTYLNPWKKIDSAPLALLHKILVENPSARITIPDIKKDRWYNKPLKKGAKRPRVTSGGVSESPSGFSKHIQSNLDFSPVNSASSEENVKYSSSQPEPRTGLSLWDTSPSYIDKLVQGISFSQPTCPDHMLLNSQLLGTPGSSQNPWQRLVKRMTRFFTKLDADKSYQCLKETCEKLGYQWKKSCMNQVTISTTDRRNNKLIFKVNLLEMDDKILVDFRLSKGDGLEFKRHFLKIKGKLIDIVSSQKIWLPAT

Chain of Mk2 (P49137 whole entry, species assumed): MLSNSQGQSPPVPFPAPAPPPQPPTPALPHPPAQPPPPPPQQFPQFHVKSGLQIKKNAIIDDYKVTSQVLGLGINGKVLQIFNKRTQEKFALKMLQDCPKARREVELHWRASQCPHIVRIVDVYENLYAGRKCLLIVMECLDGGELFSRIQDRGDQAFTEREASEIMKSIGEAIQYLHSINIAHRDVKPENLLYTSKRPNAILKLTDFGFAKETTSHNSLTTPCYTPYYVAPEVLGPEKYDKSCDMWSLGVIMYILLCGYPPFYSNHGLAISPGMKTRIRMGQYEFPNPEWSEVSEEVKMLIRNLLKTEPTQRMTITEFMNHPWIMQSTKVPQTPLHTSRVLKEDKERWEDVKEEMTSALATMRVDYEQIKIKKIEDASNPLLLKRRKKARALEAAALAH

Row | IC50 (Mk2) [nM] | IC50 (CHK-1) [nM] | SMILES
1 | 60 | – | NC(=O)c1cnc(N[C@H]2CC[C@H](N)CC2)c2nc(-c3ccc(Cl)cc3)cn12 [Compound 12]
2 | 650 | 39 | NC(=O)c1cnc(N[C@H]2CCCNC2)c2nc(-c3ccc(Cl)cc3)cn12 [Compound 5]
3 | – | 870 | N#Cc1cccc(-c2cn3c(C#N)cnc(N[C@H]4CCCNC4)c3n2)c1 [Compound 44]
4 | 810 | 55 | NC(=O)c1cccc(-c2cn3c(C(N)=O)cnc(N[C@H]4CCCNC4)c3n2)c1 [Compound 39]
